From patent US20190002492A1, “DERIVATIVES OF ALLOPR[…] OF EPIALLOPR[…] USES THEREOF FOR TREATING A NEUROPATHOLOGICAL CONDITION” (UNIVERSITE DE STRASBOURG, priority 2011, published 2019)
Entries after “also recorded” stand apart in the source; their conditions may differ.

Assays:
[1] = tested on: SH-SY5Y human neuroblastomas; test: MTT assay of cell viability and density: effect on cell proliferation; type: cell-based; set-up: key to Effect on cell proliferation (neural proliferative effect): −: no effect; +: low effect; ++: high effect; +++: very high effect; conditions: SH-SY5Y cultures
Description: The cellular model used to carry out the in vitro experiments is a line of human neuroblastomas called line SH-SY5Y.
The human neuroblastoma is a cultivated at 37° C. in a humidity saturated atmosphere, under 5% CO2 in a culture medium formed by DMEM with an added 10% (v/v) fetal calf serum, 5% (v/v) horse serum, 2 mM glutamax and 1% (v/v) of the penicillin/streptomycin mixture.
The cellular viability and the density (or number of SH-SY5Y cells/cm^2) were determined using the MTT reduction assay. The MTT technique is a colorimetric test that measures the reduction of the tetrazolium salt (3-[4,5-dimethylthiazol-2-yl]-2,5-diphenyl tetrazolium bromide) in formazan by the succinate dehydrogenase present in the mitochondria of the living cells. The formazan forms blue crystals. Thus, after solubilization of the crystals, the measurement of the absorbance at 595 nm makes it possible to obtain absorbency values directly proportional to the number of viable cells and the cell density in the culture boxes.
The effects of derivatives BR053, BR338, BR297 and BR351 on cell proliferation were evaluated by comparing the number of viable cells and the cell density in the control culture boxes, treated only with the culture medium described in paragraph A1 above, and the culture boxes exposed to the culture medium with the added BR053, BR338, BR297 or BR351 derivatives.

[2] = tested on: type A GABA channel receptors (GABAa-R); test: Whole-cell patch-clamp, effect on GABA-induced ionic current; type: cell-based, human; conditions: 0.25 μM compound, GABA 10 μM in the recording pipette, whole cell patch-clamp
Description: The studies were conducted using an electrophysiological approach. The activity of the cells was recorded using the patch-clamp technique in its so-called whole cell configuration. The mediums used for the recordings have the following composition (in mM): NaCl ([…]), KCl (2), CaCl2 (1), MgCl2 (2), HEPES (10) for the medium bathing the cells and NaCl (132), KCl (2), CaCl2 (1), MgCl2 (2), TEA (15), HEPES (10) for the recording pipette, the pH was adjusted in both cases to 7.4 with NaOH. The GABA 10 μM was added into the recording pipette.
After producing a “gigaseal” (Planar patch clamp) between the cellular membrane and the tip of a pipette with an electrical resistance comprised between 4 and 7 MO, the ionic currents were measured using a patch-clamp amplifier (Axopatch B200, Axon Instruments, CA). The acquisition of the signal (acquisition frequency of 10 kHz) was done using an interface card (Digidata 1322A, Axon Instruments, CA) and the pClamp 8 software (Axons Instruments, CA).
The allopregnanolone and the BR053, BR338, BR297 and BR351 derivatives were solubilized in pure ethanol before being diluted in the medium to the desired concentration. The dilution factor was at least equal to 2×10^4, which makes the final concentration of ethanol in the recording solution remain below […] (a concentration not affecting the activity of the GABAa receptor).
Depending on the experiments, the allopregnanolone or the BR053, BR338, BR297 or BR351 derivatives, at the concentration of 0.25 μM, were either added in the recording pipette at the same time as the GABA, or applied to the cell by perfusion.
The application was done by gravity through a multi-path perfusion system made up of glass tubes each having an inner diameter of 1 mm. The selected path was placed across from the recorded cell at approximately 100 μm. The solution was changed by calibrated rotation of the tubes using a stepping motor thus placing the new selected path across from the cell. Synchronously with that rotation, the solenoid valve controlling the flow of the selected path was also opened and the preceding one closed.

Sprague-Dawley rats = test: Acetone test of thermal allodynia to cold, painful neuropathy caused by vincristine; type: in vivo, rat; conditions: rats with vincristine neuropathy, 4 mg/kg i.p. every 2 days for 2 weeks
Description: Adult male Sprague-Dawley rats weighing between 250 and 300 g were used. They came from the company Janvier (le Genest St. Isle, France). The care and handling of the animals were done in accordance with the guidelines from the Council of the European Community (86/609/EC) and in accordance with the ethical rules of the International Association for the Study of Pain. The protocol used to carry out the in vivo studies was subject to examination and authorization granted to Prof. Mensah-Nyagan's team by the Alsatian Department of the Veterinary Public Health Guide for the Care and Use of Laboratory Animals (Approval number 67-186). The rats were housed under standard conditions with a photoperiod of 12 h day/12 h night, with unlimited food and water. The animals spent one acclimatization week before being integrated into the experimental protocols. Each animal was examined daily to detect any signs of deterioration of its health condition, such as dramatic weight loss, a decrease in appetite during chemotherapy and pharmacological treatment.
Vincristine sulfate (VINC), purchased from Sigma-Aldrich (St. Louis, Mo., USA), was dissolved in a physiological saline solution (NaCl 0.9%) at 0.1 mg/ml and stored at 4° C. The saline solution (NaCl 0.9%) is used as excipient. The VINC is injected daily by intraperitoneal injection (i.p.), in 2 cycles of 5 days separated by 2 days off, at a concentration of 0.1 mg/kg/day. The control animals were injected by i.p. (1 ml/kg) with the excipient using a similar protocol.
The allopregnanolone in the derivatives according to the invention (BR053 and BR297) were diluted in a hydroxypropylcellulose (HPC) solution (0.3%) used as excipient. The curative treatment with allopregnanolone, BR053 or BR297 began 3 days after the vincristine cycles. Each of these compounds (allopregnanolone, BR053 or BR297) was administered by the intraperitoneal route at a dose of 4 mg/kg at a rate of one injection every 2 days. Thus, over the total duration of the in vivo experiments (14 days), each animal received 7 injections of excipient, allopregnanolone, BR053 or BR297, based on its group, at a dose of 4 mg/kg. The animals were sacrificed 24 hours after the last behavioral test (28th day) to remove tissues that will be used for later histology and electrophysiology studies.
The thermal nociceptive sensitivity threshold to cold was measured in rats placed in individual Plexiglas boxes (30×30×25 cm) mounted on a raised mesh support so as to allow access to the sole of the animal's foot. […] Six measurements (3 per foot) were performed with a latency of 5 minutes between each stimulation. The average latency for withdrawal of the feet (in seconds) was calculated by averaging 6 measurements at each studied point in time. […]

| Structure (SMILES) | Effect on cell proliferation (neural proliferative effect) [1] | Effect on the proliferation of human neuroblastomas (in words) [1] | Effect on the type A GABA receptor channel or GABAa-R [2] | Effect on thermal allodynia to cold (Sprague-Dawley rats) |
| --- | --- | --- | --- | --- |
| CC(=O)[C@H]1CCC2C3CC[C@H]4C[C@@H](O)CC[C@]4(C)C3CC(=O)[C@@]21C (some centres unmarked) [BR053] | + | low effectiveness | negative allosteric action; also recorded: Negative allosteric effect | eliminates the symptoms |
| C=CCO[C@H]1CC[C@]2(C)C3CC[C@@]4(C)C(CC[C@@H]4C(C)=O)C3CC[C@H]2C1 (some centres unmarked) [BR297] | − | no effect | only partially mimics the positive allosteric effect; also recorded: Partial positive allosteric effect | eliminates the symptoms |
